From patent publication US7754677B2, “Composition and method for reducing diarrhea in a mammal” (Hill's Pet Nutrition, Inc., priority 2003, dated 2010)

Experiments:
[1] = Postprandial plasma glutamine dose response study in dogs; format: in vivo
Method: In one experiment, a source of glutamine was tested to see if it was bioavailable and able to deliver adequate glutamine to the intestinal cells. The source of glutamine was a wheat hydrolysate with an enrichment of 30% glutamine. A dose response study was carried out in 6 dogs to see if increasing levels of the glutamine source (0, 0.5, 1.0, 2% glutamine content) was detected in the plasma after feeding the diet.

[2] = test system: T cell lymphocyte; assay: T-cell proliferation assay in response to ConA mitogen, blood of dogs fed glutamine supplemented diet; format: in vivo, Beagle dogs; details: for T cell proliferation (log10 cpm): ConA mitogen, data collapsed across ConA doses
Method: In a further experiment, the efficacy of glutamine as a immune-modulator was examined. 20 Beagle dogs were randomly allocated into 4 groups receiving either basic diet or basic diet supplemented with 1%, 2%, or 4% glutamine. Blood samples were drawn in heparinized tubes from animals 2 hrs after their last feeding on day 1 and 16. Samples were prepared for immune measurement. (T cell proliferation assay).
T-cell proliferation assay. Peripheral blood leukocytes (PBL) in each blood sample were counted using Nova Celltrak II (Beckman Coulter Corp., Fla.). Blood was diluted (1:20) with supplemented media. Diluted blood was plated, in triplicate, in 96 well cell culture plates with the following mitogens diluted in supplemented media: Concanavalin A (0.5 μg/ml, 2.5 μg/ml. Plates were incubated in a humidified incubator containing 7% CO2 at 37° C. for 72 hrs. Cellular DNA was […]. Cellular DNA was harvested on glass fiber paper using a cell harvester (Skatron Instruments Inc., Va.) and suspended with 1.5 ml scintillation cocktail. [^3H]thymidine uptake was quantified as counts per minutes (CPM) using TriCarb 2100TR Liquid Scintillation Analyzer (Packard BioScience Company, Ill.). Counts were normalized to CPM/10,000 cells to account for variation in PBL concentrations.
Concanvalin A (Con A) is a polyclonal T-cell mitogen. […] Thus, the data were collapsed across the different doses of Con A to show the proliferative response of lymphocytes dependent on percentage of glutamine supplemented in the diet.

NC(=O)CC[C@H](N)C(=O)O [glutamine]
% Change in plasma glutamine from control ([1]; 0.5% supplemented glutamine in food): 3%
% Change in plasma glutamine from control ([1]; 1.0% supplemented glutamine in food): 10%
% Change in plasma glutamine from control ([1]; 2.0% supplemented glutamine in food): 15%
Lymphocyte proliferation, result in words ([2]; 1% glutamine in diet, versus control group P<0.05): maximum lymphocyte proliferation
T cell proliferation (log10 cpm) ([2]; 1% supplemental glutamine in diet): 5 log10 cpm
T-lymphocytes proliferation, result in words ([2]; 1-2% glutamine in diet): enhances overall T-lymphocytes proliferation
T cell proliferation (log10 cpm) ([2]; 2% supplemental glutamine in diet): 4.8 log10 cpm
T-lymphocytes proliferation, result in words ([2]; 4% glutamine in diet): not additionally beneficial
T cell proliferation (log10 cpm) ([2]; 4% supplemental glutamine in diet): 4.5 log10 cpm
